These results are taken from patent US8742106B2 (Novartis AG, priority 2009, dated 2014).

Data set [1] concerns the target T1, human orexin 2 receptors (Homo sapiens (Human), UniProt O43614). The data set is described as follows: Radioligand Binding Assay II ([3H]-SB649868 competition, cell membranes). The note with it: read-out: binding II hOx2R Kd. In outline: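 Competition binding used membranes from CHO or HEK cells expressing human orexin 2 receptor, incubated 1 h at room temperature with ~1 nM [3H]-SB649868 in 10 mM HEPES pH 7.5, 0.5% BSA, 5 mM MgCl2, 1 mM CaCl2, 0.05% tween. Nonspecific binding was defined with 10 μM almorexant, and bound activity was measured after filtration.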

For data set [2], the target named is T2, human orexin 1 receptors (Homo sapiens (Human), UniProt O43613). As to the kind of experiment: Calcium Accumulation in Cells (FLIPR), antagonism of orexin A. Type of data set: cell-based. The note with it: antagonism of orexin A, Cheng-Prusoff corrected; read-out: FLIPR hOx1R Ki.
T2 sequence (O43613 whole entry): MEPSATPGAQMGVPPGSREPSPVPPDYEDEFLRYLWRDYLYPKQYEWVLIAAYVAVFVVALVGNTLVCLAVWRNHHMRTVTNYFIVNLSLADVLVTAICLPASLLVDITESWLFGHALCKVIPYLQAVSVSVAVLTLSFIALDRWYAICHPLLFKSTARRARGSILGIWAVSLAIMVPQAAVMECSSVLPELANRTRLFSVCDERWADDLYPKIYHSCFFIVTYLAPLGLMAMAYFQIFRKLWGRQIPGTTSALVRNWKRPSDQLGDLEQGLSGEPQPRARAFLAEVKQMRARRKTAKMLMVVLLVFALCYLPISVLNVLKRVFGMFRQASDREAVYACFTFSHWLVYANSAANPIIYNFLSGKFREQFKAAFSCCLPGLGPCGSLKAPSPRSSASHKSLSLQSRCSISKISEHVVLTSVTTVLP
The target of data set [3] is T2, human orexin 1 receptors. The data set is described as follows: Radioligand Binding Assay I ([125I]orexin A competition, cell membranes). The note with it: read-out: binding I hOx1R Kd. The method, then:
(§1) Radioligand Binding Assay I
(§2) For crude cell membrane preparations, cells (CHO, Chinese hamster ovary or HEK, human embryonic kidney) expressing human orexin 1 or human orexin 2 receptors, were washed with HEPES (10 mM, pH 7.5), scraped off the culture plates with the same buffer, and centrifuged at 4° C. for 5 min at 2500×g. The cell pellet was either stored at −80° C. or used directly. Before the experiments, cell membranes were re-suspended in binding assay buffer (10 mM HEPES, 0.5% (w/v) bovine serum albumin, pH 7.5) by homogenisation with a Polytron homogeniser at 50 Hz for 20 s. Cell membranes were also used as made available by commercial providers.
(§3) In initial saturation experiments (to calculate Bmax), cell homogenates (150 μl) were incubated with 25-300 pM of the radioligand ([^125I]orexin A, 50 μl), 8 concentrations in triplicates in the presence or absence Orexin A (1 μM, 50 μl) to define non specific binding. Bound radioactivity was measured, and data were analysed with the program XLFIT or Graphpad Prism. Protein concentration was determined according to the Bradford/BioRad Protein Assay Kit.
(§4) In competition experiments, cell homogenates (150 μl) were incubated in assay buffer (10 mM HEPES, pH 7.5, 0.5% (w/v) bovine serum albumin, 5 mM MgCl2, 1 mM CaCl2, and tween 0.05%) for 1 h at room temperature with about 100 pM of the radioligand ([^125I]orexin A, 2100 Ci/mmole, 50 μl), and with various concentrations of compounds of the invention (50 μl) in triplicates; non-specific binding was determined in the presence of Orexin A (1 μM). Reactions were terminated by vacuum filtration, 3 washes of ice cold wash buffer (Tris-HCl pH 7.4/10 mM, with NaCl 154 mM).

The target in data set [4] is T1, human orexin 2 receptors. The description is as above. The note with it: read-out: binding I hOx2R Kd. On the procedure:
as §1, §2, §3, §4

In data set [5] the target is T2, human orexin 1 receptors. As to the kind of experiment: Radioligand Binding Assay II ([3H]-SB649868 competition, cell membranes). As to conditions: read-out: binding II hOx1R Kd. In outline:
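Membranes from CHO or HEK cells expressing human orexin 1 or orexin 2 receptors incubated 1 h at room temperature with about 1 nM [3H]-SB649868 and compound (triplicates) in HEPES pH 7.5 buffer with BSA, MgCl2, CaCl2, tween. Nonspecific binding defined with 10 μM almorexant; filtration read-out, Kd reported.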

Data set [6] deals with T1, human orexin 2 receptors. As to the kind of experiment: Calcium Accumulation in Cells (FLIPR), antagonism of orexin A. It counts as cell-based. The note with it: antagonism of orexin A, Cheng-Prusoff corrected; read-out: FLIPR hOx2R Ki. In outline:
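Cells expressing human orexin 2 receptor, loaded with Fluo4-AM (2 μM) plus probenecid (0.1 mM) for 1 h, then washed. Antagonism read as inhibition of the orexin A calcium fluorescence signal (FLIPR).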

T1 sequence (O43614 whole entry): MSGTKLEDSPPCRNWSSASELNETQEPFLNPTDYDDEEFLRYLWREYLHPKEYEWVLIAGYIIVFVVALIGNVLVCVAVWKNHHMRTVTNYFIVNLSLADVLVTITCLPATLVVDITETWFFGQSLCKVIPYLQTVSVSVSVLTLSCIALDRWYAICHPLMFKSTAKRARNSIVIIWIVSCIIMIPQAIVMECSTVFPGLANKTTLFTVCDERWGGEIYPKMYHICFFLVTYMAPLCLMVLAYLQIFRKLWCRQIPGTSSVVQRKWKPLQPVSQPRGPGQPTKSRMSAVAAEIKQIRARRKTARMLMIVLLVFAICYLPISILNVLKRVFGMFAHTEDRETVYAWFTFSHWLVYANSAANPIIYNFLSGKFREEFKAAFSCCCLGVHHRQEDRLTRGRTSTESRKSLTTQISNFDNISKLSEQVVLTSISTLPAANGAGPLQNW

The melting point is the temperature, or range, at which the solid turns liquid. As usually defined, the Kd is the constant that tells how readily two partners part at equilibrium. Broadly, the Ki is a measure of affinity in units of concentration, obtained from inhibition or displacement. `COc1ccc([C@H](C)NC(=O)COc2cc(C(F)(F)F)c3c(-c4ccccc4)nn(C)c3n2)cc1` [Example 1.4, (S)—N-(1-(4-methoxyphenyl)ethyl)-2-(1-methyl-3-phenyl-4-(trifluoromethyl)-1H-pyrazolo[3,4-b]pyridin-6-yloxy)acetamide] gave a melting point of 172 to 174 °C. The Kd in data set [1] is 3 nM. Further, in data set [2], the Ki is 14 nM. The Kd in data set [3] is 8 nM. In addition, the Kd in data set [4] came to 4 nM. Besides, the Kd in data set [5] amounted to 7 nM. In addition, the Ki in data set [6] stood at 2 nM.

The molecule `C[C@H](CNC(=O)COc1cc(C(F)(F)F)c2c(-c3ccccc3)nn(C)c2n1)c1ccccc1` [Example 1.5, (S)-2-(1-methyl-3-phenyl-4-(trifluoromethyl)-1H-pyrazolo[3,4-b]pyridin-6-yloxy)-N-(2-phenylpropyl)acetamide] had a melting point of 91 to 93 °C. The inhibitory constant (Ki) in data set [2] amounted to 870 nM. The Kd in data set [3] was 1150 nM. The Kd in data set [4] came out at 76 nM. In addition, in data set [6], the Ki came out at 36 nM.
